# Data as given in patent US12194039B2, “Methods of treating heart failure by administering omecamtiv mecarbil” (Cytokinetics, Inc., priority 2020, dated 2025).
# Read-outs that look alike come from different tables or passages of the source.
# How the values were obtained:
# [1] = system: patients with heart failure with reduced ejection fraction
# Text: The primary outcome was a composite of the time to a heart failure event or cardiovascular death, whichever occurred first. A heart failure event was defined as an urgent clinic visit, emergency department visit or hospitalization for subjectively and objectively worsening heart failure leading to treatment intensification beyond changed oral diuretic therapy. Secondary outcomes were: the time to cardiovascular death; change in KCCQ Total Symptom Score (TSS) from baseline to Week 24 (scale from 0 to 100; higher score indicates fewer symptoms); time to first heart failure hospitalization; and time to all-cause death. All deaths, HF events, major cardiac ischemic events (myocardial infarction/unstable angina hospitalization, and coronary revascularization), and strokes were adjudicated by a blinded external Clinical Events Committee (Duke Clinical Research Institute) using standardized definitions.
# [2] = system: patients with heart failure and reduced ejection fraction; format: in vivo, human; details: for Change in KCCQ total symptom score at week 24, least squares mean (SE): scale 0 to 100; for All-cause death, hazard ratio (95% CI) / Cardiovascular death, hazard ratio (95% CI) / Heart failure event, hazard ratio (95% CI) / Heart failure hospitalization, hazard ratio (95% CI) / Primary composite outcome, hazard ratio (95% CI): vs placebo; for Primary composite outcome, hazard ratio (95% CI): overall trial population
# Text: Patient eligibility requirements included age 18-85 years, New York Heart Association functional class (NYHA) II-IV symptoms, and ejection fraction of 35% or less. Participants were currently hospitalized for heart failure (in-patients) or had either an urgent visit to the emergency department or a hospitalization for heart failure (outpatients) within one year prior to randomization. […] Patients were required to receive standard drug and device therapy for heart failure consistent with regional clinical practice guidelines and doses optimized according to investigator judgment.
# Key exclusion criteria for patients included current hemodynamic or clinical instability requiring mechanical or intravenous medication, systolic blood pressure (SBP)<85 mmHg, estimated glomerular filtration rate (eGFR)<20 mL/min/1.73 m^2, recent acute coronary syndrome events or cardiovascular procedures (including planned), and other conditions that would adversely affect participation in the trial.
# All eligible participants were randomized 1:1 to oral administration of either placebo or omecamtiv mecarbil (pharmacokinetic-guided dosing: 25, 37.5 or 50 mg) twice daily. Pre-dose plasma concentrations of omecamtiv mecarbil were measured at weeks 2 and 6 with respective dose adjustments on weeks 4 and 8. The patient and investigator were blinded to the plasma concentrations and dispensed dose. The full schedule of assessments is provided in the protocol available at NEJM.org. Study drug was temporarily withheld if the participant experienced clinical signs or symptoms consistent with acute myocardial infarction or ischemia.
# The study was event-driven and was ended after approximately 1590 cardiovascular deaths. The overall type I error was 0.05 for 2-sided testing across primary and secondary endpoints with control for multiplicity testing. A single interim efficacy analysis was conducted after approximately two-thirds of the targeted number of cardiovascular deaths accrued with a one-sided alpha of 0.0005. Given the negligible impact of this interim on the final alpha, the full 0.05 was used in the final analysis consistent with the Haybittle-Peto approach. […] The mean differences in the KCCQ TSS change from baseline to Week 24 were estimated using a mixed model stratified by randomization setting (inpatient and outpatient) containing baseline TSS value, region, baseline eGFR, scheduled visit, treatment group, and the interaction of treatment group with scheduled visit. A joint omnibus F-test was used to test the treatment effect for the KCCQ TSS. An overall pooled estimate for the KCCQ TSS treatment difference to placebo were conducted using a likelihood based approach. The prespecified safety analyses included: serious adverse events; adverse events associated with discontinuation of study treatment; “adverse events of interest” i.e., ventricular arrhythmias requiring treatment and positively adjudicated major cardiac ischemic events (including myocardial infarction, hospitalization for unstable angina, coronary revascularization). […] All analyses were performed with the use of SAS software, version 9.4 (SAS Institute).
# The cumulative incidences of the primary outcome, heart failure events, death from cardiovascular causes and death from any cause were estimated with the use of the Kaplan-Meier method. Hazard ratios and 95% confidence intervals were estimated with the use of Cox regression models stratified by randomization location and region and treatment with omecamtiv mecarbil or placebo as explanatory variables. Analyses are based upon all participants who underwent randomization.
# [3] = N = 4120, median follow-up 21.8 months
# [4] = component of primary composite, N = 4120
smiles,measurement,setting,value
COC(=O)N1CCN(Cc2cccc(NC(=O)Nc3ccc(C)nc3)c2F)CC1 [omecamtiv mecarbil],Reduction in fatal stroke,[1]; all patients randomized,42%
same,Reduction in the risk of first fatal or non-fatal stroke,[1]; all patients randomized,35%
same,"Adjudicated type of first stroke event: Hemorrhagic, %",[1]; in vivo,0.1%
same,"Adjudicated type of first stroke event: Ischemic (Non-hemorrhagic), %",[1]; in vivo,1.6%
same,"Adjudicated type of first stroke event: Undetermined, %",[1]; in vivo,0.1%
same,"Adjudicated type of first stroke event: Ischemic with hemorrhagic transformation, %",[1]; n = 4110,0.1%
same,"New onset atrial fibrillation/flutter, hazard ratio",[1]; no AF/F at screening,0.70
same,"New onset atrial fibrillation/flutter, hazard ratio",[1]; no history of AF/F,0.60
same,"Non-fatal and fatal stroke, hazard ratio",[1]; no history of atrial fibrillation,0.81
same,"Non-fatal and fatal stroke, hazard ratio",[1]; no history of stroke,0.78
same,"Primary endpoint, hazard ratio","[1]; patients with a history of stroke, vs placebo",0.86
same,"Primary endpoint, hazard ratio","[1]; patients with no stroke, vs placebo",0.93
same,Time to first stroke event,[1]; result in words,significantly reduced
same,"Fatal stroke, hazard ratio",[1]; vs placebo,0.56
same,"Non-fatal and fatal stroke, hazard ratio",[1]; with history of atrial fibrillation,0.49
same,"Non-fatal and fatal stroke, hazard ratio",[1]; with history of stroke,0.23
same,"Change in KCCQ total symptom score at week 24, difference vs placebo (95% CI)",[2]; Inpatients,2.5
same,"Change in KCCQ total symptom score at week 24, difference vs placebo (95% CI)","[2]; Inpatients, listed as Omecamtiv Mecarbil","2.5 (0.54, 4.46)"
same,"Change in KCCQ total symptom score at week 24, least squares mean (SE)",[2]; Inpatients,23.7 (0.70)
same,"All-cause death, % of patients",[2]; N = 4120,25.9%
same,"All-cause death, Events/100 patient-yrs",[2]; N = 4120,14.4 Events/100 patient-yrs
same,"All-cause death, no. of patients",[2]; N = 4120,1067 no.
same,"Cardiovascular death, Events/100 patient-yrs",[2]; N = 4120,10.9 Events/100 patient-yrs
same,"Heart failure event (first), % of patients",[2]; N = 4120,28.6%
same,"Heart failure event (first), no. of patients",[2]; N = 4120,1177 no.
same,"Heart failure event, Events/100 patient-yrs",[2]; N = 4120,18.7 Events/100 patient-yrs
same,"Heart failure hospitalization (first), % of patients",[2]; N = 4120,27.7%
same,"Heart failure hospitalization (first), no. of patients",[2]; N = 4120,1142 no.
same,"Heart failure hospitalization, Events/100 patient-yrs",[2]; N = 4120,18.0 Events/100 patient-yrs
same,"Primary composite outcome, Events/100 patient-yrs",[2]; N = 4120,24.2 Events/100 patient-yrs
same,"Primary composite outcome (first heart failure event or cardiovascular death), % of patients",[2]; [3],37.0%
same,"Primary composite outcome (first heart failure event or cardiovascular death), no. of patients",[2]; [3],1523 no.
same,"Change in KCCQ total symptom score at week 24, difference vs placebo (95% CI)",[2]; Outpatients,−0.46
same,"Change in KCCQ total symptom score at week 24, difference vs placebo (95% CI)","[2]; Outpatients, listed as Omecamtiv Mecarbil","−0.5 (−1.40, 0.48)"
same,"Change in KCCQ total symptom score at week 24, least squares mean (SE)",[2]; Outpatients,5.8 (0.34)
same,"Cardiovascular death as first event, % of patients",[2]; [4],8.4%
same,"Cardiovascular death as first event, no. of patients",[2]; [4],346 no.
same,Risk reduction of primary composite outcome compared to placebo,"[2]; overall population, median 22 months",8%
same,"Cardiovascular death, % of patients","[2]; secondary outcome, N = 4120",19.6%
same,"Cardiovascular death, no. of patients","[2]; secondary outcome, N = 4120",808 no.
same,"All-cause death, hazard ratio (95% CI)",[2],1.00
same,"Cardiovascular death, hazard ratio (95% CI)",[2],1.01
same,"Heart failure event, hazard ratio (95% CI)",[2],0.93
same,"Heart failure hospitalization, hazard ratio (95% CI)",[2],0.95
same,"All-cause death, hazard ratio (95% CI)",[2]; listed as Omecamtiv Mecarbil,"1.00 (0.92, 1.09)"
same,"Cardiovascular death, hazard ratio (95% CI)",[2]; listed as Omecamtiv Mecarbil,"1.01 (0.92, 1.11)"
same,"Heart failure event, hazard ratio (95% CI)",[2]; listed as Omecamtiv Mecarbil,"0.93 (0.86, 1.00)"
same,"Heart failure hospitalization, hazard ratio (95% CI)",[2]; listed as Omecamtiv Mecarbil,"0.95 (0.87, 1.03)"
same,"Primary composite outcome, hazard ratio (95% CI)",[2],0.92
same,"Primary composite outcome, hazard ratio (95% CI)",[2]; listed as Omecamtiv Mecarbil,"0.92 (0.86, 0.99)"
